Experimental data as given in patent US7018993B2, “Antiandrogenic agent” (Chugai Seiyaku Kabushiki Kaisha, priority 2000, dated 2006).

Experiments:
human androgen receptor [1] = target: T1, human androgen receptor (Homo sapiens, UniProt P10275); assay: Androgen receptor reporter gene assay for antagonistic effects (inhibition of DHT-induced transcriptional activity, HeLa cells); assay type: cell-based
T1 construct: expressed in transfected cells; host or cells: HeLa cells
T1 sequence (P10275 1-920): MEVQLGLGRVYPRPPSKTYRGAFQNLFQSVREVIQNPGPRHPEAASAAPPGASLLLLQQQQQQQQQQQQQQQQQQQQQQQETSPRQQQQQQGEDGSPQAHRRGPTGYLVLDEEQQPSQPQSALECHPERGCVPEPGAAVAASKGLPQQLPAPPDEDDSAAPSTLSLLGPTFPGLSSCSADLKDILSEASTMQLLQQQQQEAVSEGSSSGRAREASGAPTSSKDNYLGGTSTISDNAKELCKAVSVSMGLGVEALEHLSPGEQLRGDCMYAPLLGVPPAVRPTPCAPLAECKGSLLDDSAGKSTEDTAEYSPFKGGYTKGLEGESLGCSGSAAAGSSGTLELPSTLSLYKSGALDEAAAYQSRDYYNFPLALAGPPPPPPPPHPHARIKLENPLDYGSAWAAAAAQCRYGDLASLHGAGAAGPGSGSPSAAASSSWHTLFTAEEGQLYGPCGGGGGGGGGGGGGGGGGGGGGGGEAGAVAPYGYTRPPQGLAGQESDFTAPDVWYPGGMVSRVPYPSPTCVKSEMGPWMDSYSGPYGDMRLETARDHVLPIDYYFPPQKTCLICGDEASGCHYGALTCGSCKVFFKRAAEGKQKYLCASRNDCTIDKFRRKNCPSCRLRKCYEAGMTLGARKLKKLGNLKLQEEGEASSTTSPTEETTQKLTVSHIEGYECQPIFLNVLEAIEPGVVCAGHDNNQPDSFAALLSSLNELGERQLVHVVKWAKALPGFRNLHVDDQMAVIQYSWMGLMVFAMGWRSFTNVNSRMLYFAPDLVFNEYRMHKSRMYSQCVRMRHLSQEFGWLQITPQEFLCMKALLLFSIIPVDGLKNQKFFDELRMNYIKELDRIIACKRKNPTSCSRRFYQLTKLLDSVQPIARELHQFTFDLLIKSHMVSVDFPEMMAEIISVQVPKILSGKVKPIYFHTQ
Method: Twenty-four hours before transfection, 1.0×10^5 HeLa cells are cultured in a 12-well microplate containing phenol red-free DMEM/5% DCC-FBS. […] To effect this assay, reference may be made to J. Biol. Chem., vol. 270, p.
(§1) Twenty-four hours before transfection, 1.0×10^5 HeLa cells are cultured in a 12-well microplate containing phenol red-free DMEM/5% DCC-FBS.

human androgen receptor [2] = target: T1, human androgen receptor; assay: Androgen receptor reporter gene assay for agonistic effects (MMTV-Luc, HeLa cells); assay type: cell-based; details: 10 μmol/L
Method: Twenty-four hours before transfection, 1.0×10^5 HeLa cells (purchased from Dainippon Pharmaceutical Co., Ltd.) are cultured in a 12-well microplate containing phenol red-free Dulbecco's Modified Eagle Medium (phenol red-free DMEM) supplemented with charcoal-treated FBS (DCC-FBS; 5%). […] To effect this assay, reference may be made to J. Biol. Chem., vol. 270, p.
as §1

[3] = prostate cancer patients undergoing treatment with flutamide; cited from earlier work
androgen receptor = androgen receptor (Homo sapiens, UniProt P10275); details: 10 μmol/L; cited from earlier work
prostate weight = details: castrated rats, continuous administration for two weeks; cited from earlier work

Q: For `CN(C)C(=O)CCCOc1cc(O)cc(CCC[C@@H]2C[C@H]3CC(=O)CC[C@]3(C)[C@H]3CC[C@]4(C)[C@@H](O)CC[C@H]4[C@H]23)c1` [Compound from Example 3, 17β-Hydroxy-7α-(3-(3-hydroxy-5-(3-(N,N-dimethylaminocarbonyl)propoxy)phenyl)propyl)-5α-androstan-3-one], which IC50 (human androgen receptor [1]) is on record?
A: 392 nM

Q: Which agonistic effects (human androgen receptor [2]) does the source give for `CC(C)(O)C(=O)Nc1ccc([N+](=O)[O-])c(C(F)(F)F)c1` [Hydroxyflutamide, hydroxyflutamide] here?
A: observed to have agonistic effects

Q: What about the “Luciferase activity (Relative activity)” value (human androgen receptor [1]; 1.0 μmol/L compound with 0.1 nmol/L DHT, 48 h, activity given by 0.1 nmol/L DHT set to 100) of the same molecule?
A: 29.0 (<50.0)

Q: And the blood hydroxyflutamide levels [3]?
A: several

Q: And the “transcriptional activity of androgen receptor” value (androgen receptor)?
A: enhance the transcriptional activity

Q: For `CC(=O)O[C@]1(C(C)=O)CC[C@H]2[C@@H]3C=C(Cl)C4=CC(=O)CC[C@]4(C)[C@H]3CC[C@@]21C` [chlormadinone acetate], which prostate weight (prostate weight) is on record?
A: increase in their prostate weight

Q: For `CC(=O)O[C@]1(C(C)=O)CC[C@H]2[C@@H]3C=C(Cl)C4=CC(=O)[C@@H]5C[C@@H]5[C@]4(C)[C@H]3CC[C@@]21C` [cyproterone acetate], which prostate weight (prostate weight) is on record?
A: increase in their prostate weight
